In article PMC12683522 (Frontiers in Pharmacology, 2025):

Legend:
[1] = Single-dose pharmacokinetics of palbociclib tablets under fasting conditions with rabeprazole pre-treatment; format: in vivo, healthy Chinese subjects; conditions: sampling to 96 h after administration
Method: This was a single-center, randomized, open-label, single-dose, two-period crossover bioequivalence study conducted under fasting conditions with rabeprazole pre-treatment. It was carried out at the Phase I Clinical Research Center of Hebei General Hospital in Shijiazhuang, Hebei Province, China, from 12 September 2023, to 27 October 2023. […] Water intake was prohibited from 1 h before to 1 h after each dose (except for breakfast and water used for medication administration). On Day 1, under fasted conditions (at least 10 h), subjects received their seventh dose of rabeprazole and maintained fasting for an additional 4 h. […]
Tmax, t1/2z, elimination rate constant (λz) and percentage of extrapolated residual area (AUC_%Extrap) were the secondary endpoints. […] Cmax and Tmax were determined directly from the observed plasma concentration-time profiles. AUC0-t was calculated using the linear/log trapezoidal method. AUC0‐∞ was determined by formula: AUC0‐∞ = AUC0-t + Ct/λz, where Ct was the last measurable concentration. The slope of the terminal segment of the semi-logarithmic drug-time curve calculated by linear regression is used to obtain λz. t1/2z was calculated as ln2/λz. AUC_%Extrap was determined by formula: AUC_%Extrap = [( AUC0‐∞ - AUC0-t)/ AUC0‐∞ ]×100%. For pharmacokinetic parameters that cannot be calculated due to inapplicable data, they are marked with “-” in the dataset.

[2] = Safety assessment (adverse events, CTCAE v5.0); format: in vivo, healthy Chinese subjects
Method: Safety assessments included AEs, SAEs, concomitant medications, laboratory tests, clinical symptoms, vital sign measurements, 12-lead ECG and physical examination results. […] Laboratory tests, physical examinations, and 12-lead ECG were performed at screening and during the follow-up period. All AEs were monitored throughout the study by the research doctors and spontaneously reported by the subjects. AEs were coded using MedDRA (Medical Dictionary for Regulatory Activities: Version 26.1) and summarized according to System Organ Class (SOC) and Preferred Term (PT), including the number and percentage of subjects experiencing AEs and the frequency of AEs. The severity of AEs was graded according to the Common Terminology Criteria for Adverse Events (CTCAE, Version 5.0) issued by the U.S. National Cancer Institute. Missing safety data were labeled as “Missing” in the datasets and were not imputed in the subsequent analyses.

[3] = parameters: method as in Eser et al., 2022; conditions: intragastric pH above 4.5; ref Eser et al., 2022; cited from earlier work
[4] = Bioequivalence analysis of test vs reference palbociclib tablets (GLSM ratio, 90% CI); format: in vivo, healthy Chinese subjects; conditions: fasting, rabeprazole pre-treatment
Method: After log-transforming Cmax, AUC0−t, and AUC0‐∞ , analysis of variance (using the PROC MIXED method) was performed via a mixed linear effects model, with formulation, period, and sequence treated as fixed effects and subject nested within sequence as a random effect. Throughout the analyses, missing data were, in principle, not imputed. Bioequivalence was assessed using the two one-sided t-tests, and the 90% confidence interval (CI) for the ratio of the geometric least squares means of the two formulations was calculated. If the CI fell entirely within the range of 80.00%–125.00%, the formulations were deemed bioequivalent. Tmax was evaluated using the non-parametric Wilcoxon signed-rank test, and statistical significance was considered when P < 0.05. Pharmacokinetic parameters were calculated using Phoenix WinNonlin (version 8.3), while the remaining statistical analyses and data processing were performed by SAS software (version 9.4). Continuous variables were presented with descriptive statistics, and categorical data were expressed as frequencies and percentages.

share of AUC0‐∞ covered by AUC0-t [1]: 93% | Intra-subject CV of AUC0-t [4]: 6.14% | Intra-subject CV of AUC0‐∞ [4]: 5.83% | Intra-subject CV of Cmax [4]: 9.65%
Compound: CC(=O)c1c(C)c2cnc(Nc3ccc(N4CCNCC4)cn3)nc2n(C2CCCC2)c1=O [palbociclib]
severity of AEs ([2]; CTCAE v5.0): mild and reported as grade 1 | adverse events confirmed as adverse reactions ([2]; of 28 adverse events in 17 subjects): 4 | Sum of treatment-emergent AEs, AE count ([2]; safety analysis set): 28 | incidence of AEs ([2]; safety analysis set): 51.5% | serious adverse events (SAEs) ([2]; safety analysis set): No SAEs occurred | solubility [3]: < 500 µg/mL
